Experimental data as given in ChEMBL document CHEMBL1201862, “PubChem BioAssay data set” (2004).
Calls of active or inactive are those of the source.

Columns and labels:
[1] = target: T1, Neuropeptides B/W receptor type 1 (Homo sapiens, UniProt P48145); experiment: Fluorescence-based dose response cell-based high throughput screening assay to identify antagonists of the G-protein coupled receptor 7 (GPR7). [Related pubchem assays: 1952 (Screening assay (GPR7 antagonists).), 1880 (Summary AID.)]; type: functional
T1 sequence (P48145 whole entry): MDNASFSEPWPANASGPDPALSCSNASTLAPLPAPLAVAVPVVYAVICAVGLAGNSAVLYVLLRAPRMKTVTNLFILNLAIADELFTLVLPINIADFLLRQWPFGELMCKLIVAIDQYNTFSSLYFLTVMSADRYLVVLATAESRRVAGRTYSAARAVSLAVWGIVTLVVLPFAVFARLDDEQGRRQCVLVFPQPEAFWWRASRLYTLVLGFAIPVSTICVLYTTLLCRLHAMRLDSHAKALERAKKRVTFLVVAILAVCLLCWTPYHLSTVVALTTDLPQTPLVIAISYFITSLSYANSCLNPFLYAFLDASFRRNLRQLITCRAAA

[2] = target: Melanin-concentrating hormone receptor 1 (Homo sapiens, UniProt Q99705); experiment: Fluorescence-based counterscreen for antagonists of the G-protein coupled receptor 7 (GPR7): cell-based high throughput dose response assay to identify antagonists of the melanin-concentrating hormone receptor 1 (MCHR1).; type: functional
[3] = Trypanosoma cruzi growth suppression in host cells – NIH3T3 host cells, beta-gal luminescence, confirmation (AID 2044); type: functional, cell-based;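 note: intracellular parasites grown in NIH/3T3 mouse fibroblasts as host cells; luminescent beta-galactosidase reporter signal from transgenic T. cruzi replicating inside host cells; inhibitors lower the luminescence signal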
[4] = NIH3T3 cell viability loss – ATP luminescence, mouse fibroblasts, counter-screen, dose response (AID 2010); type: functional, cell-based;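 note: cells exposed to compound for about 90 hours before reading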
[5] = A cytotoxicity screen of small molecule inhibitors of the PhoP region in Salmonella typhi identified in the primary screen. [Related pubchem assays: 1850, 1864, 1985 ]; type: functional
[6] = target: Peroxisome proliferator-activated receptor gamma/Nuclear receptor coactivator 1 (Homo sapiens, UniProt P37231); experiment: TR-FRET dose response biochemical High Throughput Screening assay for agonists of the steroid receptor coactivator 1 (SRC-1) recruitment by the peroxisome proliferator-activated receptor gamma (PPAR gamma): non-selective agonists. [Related pubchem assays (depositor defined):AID1300, AID1808, AID504735, AID631]; type: protein assay
[7] = target: Peroxisome proliferator-activated receptor gamma/Nuclear receptor coactivator 3 (Homo sapiens, UniProt P37231); experiment: TR-FRET dose response biochemical High Throughput Screening assay for agonists of the steroid receptor coactivator 3 (SRC-3) recruitment by the peroxisome proliferator-activated receptor gamma (PPAR gamma): non-selective agonists. [Related pubchem assays: 1301 (Confirmation screen.), 1048 (Primary screen.)]; type: functional
[8] = target: Peroxisome proliferator-activated receptor gamma/Nuclear receptor coactivator 2 (Homo sapiens, UniProt P37231); experiment: TR-FRET dose response biochemical High Throughput Screening assay for agonists of the steroid receptor coactivator 2 (SRC-2) recruitment by the peroxisome proliferator-activated receptor gamma (PPAR gamma): non-selective agonists. [Related pubchem assays: 1297, 1032 ]; type: functional
[9] = HEK-293T cell viability reduction – luminescence, B-cell screen hits, cytotoxicity control for BCR NF-kB inhibitor project, dose response (AID 489021); type: functional, cell-based;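 note: HEK-293T cells carrying an NF-kB luciferase reporter; cells exposed to compound for about 14 hours before viability readout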
[10] = target: Glyceraldehyde-3-phosphate dehydrogenase (Homo sapiens, UniProt P04406)
[11] = target: T2, Alkaline phosphatase, tissue-nonspecific isozyme (Homo sapiens, UniProt P05186); experiment: potency against alkaline phosphatase TNAP – biochemical, luminescent, dose response, SAR follow-up (AID 1056)
T2 sequence (P05186 whole entry): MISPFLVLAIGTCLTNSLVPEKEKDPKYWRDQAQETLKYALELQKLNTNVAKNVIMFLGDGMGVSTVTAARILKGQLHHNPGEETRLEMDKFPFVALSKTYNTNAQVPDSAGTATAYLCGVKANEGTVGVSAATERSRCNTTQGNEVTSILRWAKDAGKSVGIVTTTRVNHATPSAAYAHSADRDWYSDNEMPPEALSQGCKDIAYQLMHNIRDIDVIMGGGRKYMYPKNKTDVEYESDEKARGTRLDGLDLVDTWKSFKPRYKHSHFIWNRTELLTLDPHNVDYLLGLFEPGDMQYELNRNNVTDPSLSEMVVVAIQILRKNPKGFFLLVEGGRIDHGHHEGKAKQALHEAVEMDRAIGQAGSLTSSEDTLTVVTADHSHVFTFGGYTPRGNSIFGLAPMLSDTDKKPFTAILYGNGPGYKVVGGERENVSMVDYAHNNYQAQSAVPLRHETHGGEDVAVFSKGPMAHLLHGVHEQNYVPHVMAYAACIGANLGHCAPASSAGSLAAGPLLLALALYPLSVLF

Aminopeptidase N = target: T3, Aminopeptidase N (Plasmodium falciparum FcB1/Columbia, UniProt O96935); experiment: malaria alanyl aminopeptidase activity blockers – biochemical, fluorogenic H-Leu-NHMec substrate, 1536-well (AID 1445); design: species or system Plasmodium falciparum 3D7, 3D7
T3 sequence (O96935 whole entry): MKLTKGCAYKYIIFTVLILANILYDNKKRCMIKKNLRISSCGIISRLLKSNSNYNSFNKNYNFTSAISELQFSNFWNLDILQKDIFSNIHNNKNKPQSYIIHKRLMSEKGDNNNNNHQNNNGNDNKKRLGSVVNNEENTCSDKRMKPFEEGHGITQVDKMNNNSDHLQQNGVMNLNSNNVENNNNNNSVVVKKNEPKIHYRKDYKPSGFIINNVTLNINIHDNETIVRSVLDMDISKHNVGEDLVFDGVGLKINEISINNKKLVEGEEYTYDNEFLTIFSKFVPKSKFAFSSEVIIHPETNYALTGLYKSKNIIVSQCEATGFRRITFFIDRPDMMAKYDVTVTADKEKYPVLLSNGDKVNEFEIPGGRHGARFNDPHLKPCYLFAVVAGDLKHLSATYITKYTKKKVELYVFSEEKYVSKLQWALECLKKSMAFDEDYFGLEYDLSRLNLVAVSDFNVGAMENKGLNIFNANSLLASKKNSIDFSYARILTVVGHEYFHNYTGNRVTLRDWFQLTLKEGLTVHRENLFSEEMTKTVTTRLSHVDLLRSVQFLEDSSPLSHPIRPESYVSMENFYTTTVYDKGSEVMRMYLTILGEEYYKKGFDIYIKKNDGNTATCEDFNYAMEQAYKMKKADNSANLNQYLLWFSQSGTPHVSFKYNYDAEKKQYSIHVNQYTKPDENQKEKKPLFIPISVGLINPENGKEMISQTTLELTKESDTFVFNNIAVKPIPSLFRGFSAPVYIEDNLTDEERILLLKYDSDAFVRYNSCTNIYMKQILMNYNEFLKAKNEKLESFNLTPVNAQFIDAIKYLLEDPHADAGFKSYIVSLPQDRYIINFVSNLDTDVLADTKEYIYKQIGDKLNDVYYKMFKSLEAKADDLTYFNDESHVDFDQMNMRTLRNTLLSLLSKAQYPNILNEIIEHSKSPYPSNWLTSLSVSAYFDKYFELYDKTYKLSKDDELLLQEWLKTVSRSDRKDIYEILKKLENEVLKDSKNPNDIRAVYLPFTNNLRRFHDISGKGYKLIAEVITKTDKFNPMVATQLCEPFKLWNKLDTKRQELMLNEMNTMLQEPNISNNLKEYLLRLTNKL

[12] = target: DNA dC->dU-editing enzyme APOBEC-3A (Homo sapiens, UniProt P31941); experiment: Dose Response confirmation of small molecule APOBEC3A DNA Deaminase Inhibitors via a fluorescence-based single-stranded DNA deaminase assay. [Related pubchem assays (depositor defined):AID493011, AID493024]; type: functional
[13] = target: DNA dC->dU-editing enzyme APOBEC-3G (Homo sapiens, UniProt Q9HC16); type: functional;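 note: Dose-response counterscreen measuring inhibition of APOBEC3G DNA deaminase activity, run while confirming APOBEC3A inhibitors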
[14] = viability of uninfected HEp-2 cells – cell-based, HTS, cytotoxicity control for RSV inhibitor project, dose response (AID 2410); type: functional; conditions: human respiratory syncytial virus
[15] = target: T4, Heat shock factor protein 1 (Mus musculus, UniProt P38532); experiment: enhancement of HSF1-driven luciferase signal – cell-based, NIH3T3, luminescence, dose retest, confirmation (AID 435004); type: functional;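 note: stress induced by proteasome inhibitor MG132 added 30 min after compound; luciferase reporter driven by HSF1 response element in NIH3T3 cells; actives raise luminescence as potentiators of the MG132 stress response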
T4 sequence (P38532 whole entry): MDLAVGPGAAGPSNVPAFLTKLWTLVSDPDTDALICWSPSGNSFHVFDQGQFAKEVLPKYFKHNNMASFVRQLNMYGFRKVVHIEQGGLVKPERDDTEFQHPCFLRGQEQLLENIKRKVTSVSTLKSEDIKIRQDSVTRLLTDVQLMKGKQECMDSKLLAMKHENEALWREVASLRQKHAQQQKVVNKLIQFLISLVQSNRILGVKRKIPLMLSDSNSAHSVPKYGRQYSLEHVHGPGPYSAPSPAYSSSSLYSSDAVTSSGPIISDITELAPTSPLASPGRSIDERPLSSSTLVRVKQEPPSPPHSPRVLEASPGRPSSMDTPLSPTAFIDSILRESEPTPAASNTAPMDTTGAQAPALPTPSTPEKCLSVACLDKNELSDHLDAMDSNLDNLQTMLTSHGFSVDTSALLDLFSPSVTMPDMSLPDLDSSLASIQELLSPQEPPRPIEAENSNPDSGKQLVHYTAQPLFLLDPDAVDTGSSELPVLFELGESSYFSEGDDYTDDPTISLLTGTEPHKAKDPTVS

cells [16] = type: functional, cell-based
cells [17] = type: functional, cell-based; remark: listed apart in the source
Nonstructural protein 1 = Nonstructural protein 1 (Influenza A virus, UniProt Q194T2); type: functional, Influenza A virus (A/California/07/2009(H1N1))
[18] = target: T5, Microphthalmia-associated transcription factor (Homo sapiens, UniProt O75030); experiment: reducers of TRPM1 reporter luminescence, concentration series – cell-based, SK-MEL-5, cherry-picked, set 3, MITF inhibitor project, dose response (AID 493073); type: functional;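 note: SK-MEL-5 melanoma cells with luciferase driven by the MITF target TRPM1 promoter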
T5 sequence (O75030 whole entry): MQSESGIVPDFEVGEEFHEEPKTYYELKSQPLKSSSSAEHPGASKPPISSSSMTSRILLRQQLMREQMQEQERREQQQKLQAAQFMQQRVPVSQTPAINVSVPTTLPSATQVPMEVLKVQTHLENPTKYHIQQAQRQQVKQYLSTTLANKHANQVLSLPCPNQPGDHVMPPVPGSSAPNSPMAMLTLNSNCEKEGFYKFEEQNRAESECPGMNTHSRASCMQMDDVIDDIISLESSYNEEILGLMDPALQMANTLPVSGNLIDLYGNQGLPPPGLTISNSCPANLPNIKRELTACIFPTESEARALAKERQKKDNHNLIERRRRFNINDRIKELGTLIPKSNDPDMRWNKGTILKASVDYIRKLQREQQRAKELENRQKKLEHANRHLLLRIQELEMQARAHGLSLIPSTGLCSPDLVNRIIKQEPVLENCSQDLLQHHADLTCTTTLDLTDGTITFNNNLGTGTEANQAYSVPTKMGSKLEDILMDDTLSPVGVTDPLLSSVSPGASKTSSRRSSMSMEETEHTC

[19] = microbe, parasite or virus in culture; type: functional; conditions: Mycobacterium tuberculosis
[20] = Luminescence-based dose response cell-based high throughput screening assay for cytotoxic compounds using the IEC-6 intestinal epithelial cell line. [Related pubchem assays: 1858 (Summary AID.), 1825 (Counterscreen.), 1907 (Confirmation screen.)]; type: functional
Vero = experiment: cells; type: functional; conditions: Chlorocebus sabaeus

Sequence of Glyceraldehyde-3-phosphate dehydrogenase (P04406 whole entry): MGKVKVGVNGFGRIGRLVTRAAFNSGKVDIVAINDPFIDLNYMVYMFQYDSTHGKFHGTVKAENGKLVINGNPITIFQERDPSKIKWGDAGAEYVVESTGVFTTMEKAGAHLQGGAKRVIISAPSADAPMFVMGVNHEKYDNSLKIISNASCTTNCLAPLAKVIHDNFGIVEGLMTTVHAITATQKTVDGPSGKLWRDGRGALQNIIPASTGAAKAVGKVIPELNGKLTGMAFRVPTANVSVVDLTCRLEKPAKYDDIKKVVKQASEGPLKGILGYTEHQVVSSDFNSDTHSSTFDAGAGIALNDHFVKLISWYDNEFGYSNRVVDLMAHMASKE
Sequence of Melanin-concentrating hormone receptor 1 (Q99705 whole entry): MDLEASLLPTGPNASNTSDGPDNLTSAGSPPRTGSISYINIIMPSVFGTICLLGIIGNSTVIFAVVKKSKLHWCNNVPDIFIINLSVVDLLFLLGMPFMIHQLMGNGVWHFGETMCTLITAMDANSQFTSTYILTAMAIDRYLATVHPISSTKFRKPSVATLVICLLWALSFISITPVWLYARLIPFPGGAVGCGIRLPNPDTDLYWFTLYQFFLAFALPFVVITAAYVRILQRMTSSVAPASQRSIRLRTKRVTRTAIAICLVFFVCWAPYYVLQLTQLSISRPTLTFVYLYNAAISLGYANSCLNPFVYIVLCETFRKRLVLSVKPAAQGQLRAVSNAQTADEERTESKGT
Sequence of DNA dC->dU-editing enzyme APOBEC-3A (P31941 whole entry): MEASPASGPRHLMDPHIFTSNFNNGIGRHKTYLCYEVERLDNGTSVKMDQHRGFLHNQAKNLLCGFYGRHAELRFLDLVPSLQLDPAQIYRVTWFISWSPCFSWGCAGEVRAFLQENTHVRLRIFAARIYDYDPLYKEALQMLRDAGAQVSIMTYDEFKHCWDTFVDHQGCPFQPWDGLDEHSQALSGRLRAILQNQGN
Sequence of DNA dC->dU-editing enzyme APOBEC-3G (Q9HC16 whole entry): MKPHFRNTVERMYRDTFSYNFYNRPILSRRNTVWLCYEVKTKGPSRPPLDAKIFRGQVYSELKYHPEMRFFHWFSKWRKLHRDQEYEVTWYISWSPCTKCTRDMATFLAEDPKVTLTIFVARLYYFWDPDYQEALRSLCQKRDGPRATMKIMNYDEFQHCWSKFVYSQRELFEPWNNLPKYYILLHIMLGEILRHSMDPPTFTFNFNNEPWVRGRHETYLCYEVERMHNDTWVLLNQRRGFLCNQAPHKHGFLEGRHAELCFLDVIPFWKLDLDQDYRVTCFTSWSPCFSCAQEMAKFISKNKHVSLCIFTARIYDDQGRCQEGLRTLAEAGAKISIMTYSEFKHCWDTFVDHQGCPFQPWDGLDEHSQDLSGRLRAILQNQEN
Sequence of Nonstructural protein 1 (Q194T2 whole entry): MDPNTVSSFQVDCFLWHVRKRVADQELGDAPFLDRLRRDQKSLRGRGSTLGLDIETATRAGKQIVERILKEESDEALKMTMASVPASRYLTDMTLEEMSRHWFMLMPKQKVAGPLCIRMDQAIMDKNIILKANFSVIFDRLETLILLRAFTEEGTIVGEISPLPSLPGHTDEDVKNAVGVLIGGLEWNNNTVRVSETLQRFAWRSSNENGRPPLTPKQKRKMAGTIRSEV
Sequence of Peroxisome proliferator-activated receptor gamma/Nuclear receptor coactivator 1 (P37231 whole entry): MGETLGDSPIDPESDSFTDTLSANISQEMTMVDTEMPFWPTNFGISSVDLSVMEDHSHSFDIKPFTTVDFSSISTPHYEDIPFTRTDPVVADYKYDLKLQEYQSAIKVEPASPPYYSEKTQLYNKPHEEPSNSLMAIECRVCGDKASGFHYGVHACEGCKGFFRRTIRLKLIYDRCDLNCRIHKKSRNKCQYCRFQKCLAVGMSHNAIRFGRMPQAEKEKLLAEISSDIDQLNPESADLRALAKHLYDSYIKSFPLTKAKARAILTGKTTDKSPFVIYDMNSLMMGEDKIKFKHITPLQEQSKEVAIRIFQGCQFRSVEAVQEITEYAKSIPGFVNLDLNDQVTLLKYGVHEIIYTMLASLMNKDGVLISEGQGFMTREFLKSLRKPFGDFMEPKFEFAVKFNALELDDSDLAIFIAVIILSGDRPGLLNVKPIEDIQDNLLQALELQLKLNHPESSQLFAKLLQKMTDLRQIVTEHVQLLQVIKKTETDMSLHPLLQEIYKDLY
Sequence of Peroxisome proliferator-activated receptor gamma/Nuclear receptor coactivator 1 (Q15788 whole entry, further chain): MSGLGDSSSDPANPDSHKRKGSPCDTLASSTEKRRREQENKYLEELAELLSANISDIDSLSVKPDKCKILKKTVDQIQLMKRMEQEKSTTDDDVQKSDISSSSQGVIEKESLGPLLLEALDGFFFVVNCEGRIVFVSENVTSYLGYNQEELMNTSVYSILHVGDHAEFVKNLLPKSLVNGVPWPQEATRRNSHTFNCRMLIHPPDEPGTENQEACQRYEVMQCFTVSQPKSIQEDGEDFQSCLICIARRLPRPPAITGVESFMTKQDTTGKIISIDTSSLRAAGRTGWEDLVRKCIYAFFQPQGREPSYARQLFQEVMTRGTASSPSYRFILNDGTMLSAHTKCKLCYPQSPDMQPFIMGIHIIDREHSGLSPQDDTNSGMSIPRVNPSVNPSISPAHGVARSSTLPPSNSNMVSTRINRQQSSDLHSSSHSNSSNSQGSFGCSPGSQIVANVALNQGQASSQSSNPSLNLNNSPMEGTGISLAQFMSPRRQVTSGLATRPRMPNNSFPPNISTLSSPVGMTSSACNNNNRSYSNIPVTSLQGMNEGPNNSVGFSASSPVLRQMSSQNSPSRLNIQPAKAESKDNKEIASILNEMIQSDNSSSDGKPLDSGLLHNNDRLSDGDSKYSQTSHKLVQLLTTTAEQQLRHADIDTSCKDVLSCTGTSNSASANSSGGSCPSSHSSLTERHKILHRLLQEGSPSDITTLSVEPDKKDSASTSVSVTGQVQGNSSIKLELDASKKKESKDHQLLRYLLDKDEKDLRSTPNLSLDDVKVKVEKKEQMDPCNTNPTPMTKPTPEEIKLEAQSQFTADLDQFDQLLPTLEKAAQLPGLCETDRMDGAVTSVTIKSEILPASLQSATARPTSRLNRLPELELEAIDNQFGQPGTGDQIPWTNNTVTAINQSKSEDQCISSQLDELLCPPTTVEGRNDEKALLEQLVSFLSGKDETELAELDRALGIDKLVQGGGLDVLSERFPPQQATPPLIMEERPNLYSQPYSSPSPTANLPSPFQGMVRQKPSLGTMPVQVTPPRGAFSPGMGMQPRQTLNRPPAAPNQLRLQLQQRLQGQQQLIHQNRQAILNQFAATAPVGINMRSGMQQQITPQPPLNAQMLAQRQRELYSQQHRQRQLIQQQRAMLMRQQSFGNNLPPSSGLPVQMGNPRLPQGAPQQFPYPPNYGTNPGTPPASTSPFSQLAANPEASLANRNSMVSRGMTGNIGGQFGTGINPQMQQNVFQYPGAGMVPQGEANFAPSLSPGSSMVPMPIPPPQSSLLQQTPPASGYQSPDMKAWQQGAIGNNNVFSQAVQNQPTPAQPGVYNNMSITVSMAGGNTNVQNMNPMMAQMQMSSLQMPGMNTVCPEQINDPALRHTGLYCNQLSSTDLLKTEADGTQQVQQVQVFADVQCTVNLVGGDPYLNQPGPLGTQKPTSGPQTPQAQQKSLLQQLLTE

Compound: O=[N+]([O-])c1nn(-c2ccc3c(c2)OCCO3)[n+]([O-])c1Nc1ccc(Cl)cc1
- IC50 [1]: > 43.8 µM (not active)
- IC50 [2]: > 43.8 µM (not active)
- EC50 [3]: 0.131 µM (active)
- EC50 [4]: > 60 µM (not active)

Compound: COc1ccccc1/C=C/C(=O)Nc1cccc(C(C)=O)c1
- EC50 [5]: > 50 µM (active)

Compound: CCn1c(=O)cc(SCC(=O)N2CCCCC2)c2ccccc21
- EC50 [6]: > 79.4 µM (inactive)
- EC50 [7]: > 79.4 µM (not active)
- EC50 [8]: > 79.4 µM (not active)
- IC50 [9]: > 80 µM (inactive)

Compound: COc1ccc(OC)c(S(=O)(=O)Nc2cccc3ccccc23)c1
- IC50 [10]: > 100 µM (not active)
- IC50 [11]: > 100 µM (inactive)

Compound: Cc1ccccc1CSc1nc(O)c2c[nH]nc2n1
- IC50 (Aminopeptidase N): 65.2 µM (active)

Compound: O=C(O)COc1ccc(Br)cc1CP(=O)(c1ccccc1)c1ccccc1
- IC50 (Aminopeptidase N): 49.3 µM (active)

Compound: Nc1ncncc1-c1ccc(Cl)cc1
- EC50 [5]: > 50 µM (active)

Compound: Cc1ccc(N=C(S)NCc2ccc(Cl)cc2)c(C)c1
- IC50 [1]: > 43.8 µM (not active)
- IC50 [2]: 17.1 µM (not active)

Compound: O=C(CSc1nnc(NC(=O)c2ccccc2C(=O)O)s1)Nc1ccccc1Cl
- IC50 [12]: 14 µM (active)
- IC50 [13]: 9.42 µM (active)

Compound: c1cc(Cn2ccnc2)ccn1
- IC50 [10]: > 100 µM (not active)
- IC50 [11]: > 100 µM (inactive)

Compound: CC1=CC(C)(C)Nc2ccc(OC(=O)C(Cc3ccccc3)N3C(=O)c4ccccc4C3=O)cc21 (stereo not given)
- CC50 [14]: > 50 µM (active)
- EC50 [15]: > 260 µM (inactive)
- IC50 [9]: > 80 µM (inactive)

Compound: O=C(N/N=C/c1cc(Cl)ccc1O)c1ccncc1
- IC50 (Aminopeptidase N): 22.3 µM (active)
- EC50 (cells [16]): 18.1 µM (active)
- EC50 (cells [17]): > 350 µM (not active)
- IC50 (Nonstructural protein 1): 5.05 µM (active)
- AC50 [18]: 8.98 µM (active)

Compound: Cc1[nH]c2ccccc2c1/C=N/Nc1nc(Nc2ccccc2)nc(N2CCOCC2)n1
- CC50 [14]: 22.6 µM (active)
- CC50 [19]: 24.1 µM (active)
- IC50 [20]: 0.482 µM (active)
- IC50 [9]: 66.7 µM (inactive)
- CC50 (Vero): 3.33 µM (active)

Compound: COc1ccc(OC)c(S(=O)(=O)Nc2ccc3ncccc3c2)c1
- IC50 [10]: > 100 µM (not active)
- IC50 [11]: > 100 µM (inactive)
